Experimental data as given in patent EP4721737A1, “USE OF PHARMACEUTICAL COMPOSITION COMPRISING COMPOUND HAVING BIS(AZANYLYLIDENE) SULFONYL STRUCTURE FOR TREATING ANEMIA-RELATED DISEASES” (Scinnohub Pharmaceutical Co., Ltd., priority 2023, dated 2024).

Biological target: T1, PKR in ex vivo red blood cells from healthy individuals (Homo sapiens, UniProt P30613)
T1 construct: endogenous in cells; host or cells: human red blood cells isolated from fresh peripheral blood of healthy individuals
Test: ex vivo pyruvate kinase (PKR) activity experiment, red blood cells of healthy individuals
Assay type: cell-based
Conditions: 3 hours co-cultivation
Method: To test the effects of the compound of the present disclosure on PKR activation in ex vivo red blood cells from healthy individuals and patients with thalassemia.
• i. 5 g of glucose, 85 mg of adenine, and 2.625 g of mannitol were weighed and added into a 50 mL centrifuge tube. 40 mL of PBS was added to dissolve (sonicate for 30 minutes until completely dissolved). The solution was filtered through a 0.22 µm filter, then added to 460 mL of sterile PBS and mixed thoroughly.
• i. Fresh human peripheral blood was collected. K2EDTA was used as the anticoagulant. 1 part anticoagulant with 9 parts blood was mixed, then centrifuged at 500 g for 10 minutes at room temperature to remove the plasma. • ii. Packed red blood cells: 1.5 volumes of PBS were added, then centrifuged at 2000 ×g for 5 minutes at room temperature. After centrifugation, the supernatant was removed. This step was repeated twice. • iii. Diluted red blood cells: 1.5 volumes of PBS were added, then resuspended and mixed thoroughly. • iv. The diluted red blood cells were slowly added to 0.5 volume of 70% isotonic solution (e.g., 7.5 mL of diluted red blood cells + 3 mL of 70% isotonic solution Percoll) and centrifuged at 4000 ×g for 20 minutes at 4°C. • v. The supernatant was removed. The red blood cells at the bottom were washed once with 4-5 mL of PBS to elute the Percoll gel, and then centrifuged at 2000 ×g for 5 minutes at room temperature. • vi. The supernatant was removed. The red blood cells were counted and then diluted in AGAM medium containing 10% FBS to a density of 2 × 10^8 cells/mL for storage at 4°C.
i. The red blood cells were seeded into a 96-well plate at a uniform density of 1 × 10^7 cells/mL, with 100 µL per well. The test compounds (dissolved in DMSO) were diluted and added to the cell culture medium, resulting in final compound concentrations of 3000, 1000, 300, 100, 10, 3, and 1 nM (with 1% DMSO). The cells and compounds were co-cultivated for 3 hours in a 37°C incubator with 5% CO2. Subsequently, the plate was centrifuged at 2000 g for 20 minutes, and the supernatant was discarded. 100 µL of red blood cell lysis buffer was added to the cell pellet, vortexed for 20 minutes, and centrifuged at 4000 g for 5 minutes. The supernatant was collected for analysis. ii. The reaction system was prepared according to the kit instructions (shown as the table below), 10 µL of the reaction system was added to each well of a 384-well plate, and 10 µL of red blood cell lysis buffer was took and mixed well (20 µL reaction system).
iii. A black, transparent-bottomed 384-well plate was placed in a microplate reader to measure fluorescence at 540/590 nm. The fluorescence was read every 2 minutes for 1 hour.
i. The Slope value was calculated over the assay time. Compound activation percentage was calculated using the 1% DMSO well as the control well. Activation percentage = (Slope of compound well / Slope of control well) × 100% ii. Dose-response curve was fit using the logarithmic compound concentration on the X-axis and the percent activation percentage on the Y-axis, the log(agonist) vs. response - variable slope function in GraphPad Prism 5 was used to determine the AC50 value for each compound on PKR activity. Y = min + (max−min)/(1+10^(∧)((LogAC50−X)×Hillslope)). [formula] The PKR agonist effects of the compound of the present disclosure on ex vivo red blood cells from healthy individuals and thalassemia patients were determined using the above assay. The AC50 values measured on ex vivo red blood cells from healthy individuals are as follows (A represents 0-100 nM, B represents 101-300 nM, and C represents 300-1000 nM): […]

T1 sequence (P30613 whole entry): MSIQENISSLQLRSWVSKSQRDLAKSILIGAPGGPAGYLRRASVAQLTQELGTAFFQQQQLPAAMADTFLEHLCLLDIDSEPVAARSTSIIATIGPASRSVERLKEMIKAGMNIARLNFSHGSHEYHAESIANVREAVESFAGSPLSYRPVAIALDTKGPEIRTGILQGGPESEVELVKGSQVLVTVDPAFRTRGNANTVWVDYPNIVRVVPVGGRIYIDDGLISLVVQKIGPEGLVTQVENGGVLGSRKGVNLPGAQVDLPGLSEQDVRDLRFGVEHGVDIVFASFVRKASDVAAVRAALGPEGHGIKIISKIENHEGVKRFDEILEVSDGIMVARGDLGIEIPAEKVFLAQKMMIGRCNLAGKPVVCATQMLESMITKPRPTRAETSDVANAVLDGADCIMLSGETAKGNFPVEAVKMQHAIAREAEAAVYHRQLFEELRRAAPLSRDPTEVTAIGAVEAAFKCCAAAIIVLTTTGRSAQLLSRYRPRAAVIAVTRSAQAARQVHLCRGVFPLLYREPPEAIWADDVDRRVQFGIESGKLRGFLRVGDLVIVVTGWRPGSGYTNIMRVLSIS

Row | AC50 | SMILES
1 | 101 to 300 nM | O=C([C@H](CO)c1ccccc1)N1CC(=C2CN(S(=O)(=O)c3cnc4c(c3)OCCO4)C2)C1 [Compound 1, (S)-1-(1'-((2,3-dihydro-[1,4]dioxino[2,3-b]pyridin-7-yl)sulfonyl)-1',4'-dihydro-2H,2'H-[3,3'-diazetidinylidene]-1(4H)-yl)-3-hydroxy-2-phenylpropan-1-one]
2 | 300 to 1000 nM | O=C([C@H](CO)c1ccccc1)N1CC(=C2CN(S(=O)(=O)c3ccc4c(c3)OCCO4)C2)C1 [Compound 2, (S) -1-(1'-((2,3-dihydrobenzo[b][1,4]dioxin-6-yl)sulfonyl)-1',4'-dihydro-2H,2'H-[3,3'-diazetidinylidene]-1(4H)-yl)-3-hydroxy-2-phenylpropan-1-one]
3 | 101 to 300 nM | O=C([C@H](CO)c1ccccc1)N1CC(=C2CN(S(=O)(=O)c3ccc4ncsc4c3)C2)C1 [Compound 3, (S)-1-(1'-(benzo[d]thiazol-6-ylsulfonyl)-1',4'-dihydro-2H,2'H-[3,3'-diazetidinylidene]-1(4H)-yl)-3-hy droxy-2-phenylpropan-1-one]
4 | < 100 nM | O=C([C@H](CO)c1ccccc1)N1CC(=C2CN(S(=O)(=O)c3ccccn3)C2)C1 [Compound 4, (S)-3-hydroxy-2-phenyl-1-(1'-(pyridin-2-ylsulfonyl)-1',4'-dihydro-2H,2'H-[3.3'-diazetidinylidene]-1(4H)-yl)propan-1-one]
5 | 101 to 300 nM | COc1ccc(S(=O)(=O)N2CC(=C3CN(C(=O)[C@H](CO)c4ccccc4)C3)C2)cc1 [Compound 5, (S)-3-hydroxy-1-(1'-((4-methoxyphenyl)sulfonyl)-1',4'-dihydro-2H,2'H-[3,3'-diazetidinylidene]-1(4H )-yl)-2-phenylpropan-1-one]
6 | < 100 nM | O=C([C@H](CO)c1ccccc1)N1CC(=C2CN(S(=O)(=O)c3ccc(OC(F)F)cc3)C2)C1 [Compound 7, (S)-1-(1'-((4-(difluoromethoxy)phenyl)sulfonyl)-1',4'-dihydro-2H,2'H-[3,3'-diazetidinylidene]-1(4H)-yl)-3-hydroxy-2-phenylpropan-1-one]
7 | < 100 nM | O=C([C@H](CO)c1ccccc1)N1CC(=C2CN(S(=O)(=O)c3ccc(OC(F)(F)F)cc3)C2)C1 [Compound 9, (S)-3-hydroxy-2-phenyl-1-(1'-((4-(trifluoromethoxy)phenyl)sulfonyl)-1',4'-dihydro-2H,2'H-[3,3'-diazetidinylidene]-1(4H)-yl)propan-1-one]
8 | < 100 nM | O=C([C@H](CO)c1ccccc1)N1CC(=C2CN(S(=O)(=O)c3ccc(F)cc3)C2)C1 [Compound 10]
9 | < 100 nM | O=C([C@H](CO)c1ccccc1)N1CC(=C2CN(S(=O)(=O)c3ccc(OC(F)F)c(F)c3)C2)C1 [Compound 11]
10 | 300 to 1000 nM | O=C([C@H](CO)c1ccccc1)N1CC(=C2CN(S(=O)(=O)c3ccc4c(c3)NCCO4)C2)C1 [Compound 12, (S)-1-(1'-((3,4-dihydro-2H-benzo[b][1,4]oxazin-6-yl)sulfonyl)-1',4'-dihydro-2H,2'H-[3,3'-diazetidinylidene]-1(4H)-yl)-3-hydroxy-2-phenylpropan-1-one]
11 | < 100 nM | O=C(C(CO)c1ccc(F)cc1)N1CC(=C2CN(S(=O)(=O)c3ccc(OC(F)F)cc3)C2)C1 (stereo not drawn) [Compound 16, 1-(1'-((4-(difluoromethoxy)phenyl)sulfonyl)-1',4'-dihydro-2H,2'H-[3,3'-diazetidinylidene]-1(4H)-yl)-2-(4-fluorophenyl)-3-hydroxypropan-1-one]
12 | 300 to 1000 nM | O=C([C@H](CO)c1ccccc1)N1CC(=C2CN(S(=O)(=O)c3cc(F)c4c(c3)OCCO4)C2)C1 [Compound 20, (S)-1-(1'-((8-fluoro-2,3-dihydrobenzo[b][1,4]dioxin-6-yl)sulfonyl)-1',4'-dihydro-2H,2'H-[3,3'-diazetidinylidene]-1(4H)-yl)-3-hydroxy-2-phenylpropan-1-one]
13 | < 100 nM | NC(C(=O)N1CC(=C2CN(S(=O)(=O)c3ccc(OC(F)F)cc3)C2)C1)c1ccc(F)cc1 (stereo not drawn) [Compound 22, 2-amino-1-(1'-((4-(difluoromethoxy)phenyl)sulfonyl)-1',4'-dihydro-2H,2'H-[3,3'-diazetidinylidene]-1 (4H)-yl)-2-(4-fluorophenyl)ethan-1-one]
14 | 300 to 1000 nM | O=C([C@H](CO)c1ccc(F)cc1)N1CC(=C2CN(S(=O)(=O)c3ccc4ncsc4c3)C2)C1 [Compound 25, (S)-1-(1'-(benzo[d]thiazol-6-ylsulfonyl)-1',4'-dihydro-2H,2'H-[3,3'-diazetidinylidene]-1(4H)-yl)-2-(4-fluorophenyl)-3-hydroxypropan-1-one]
15 | < 100 nM | O=C(C(CO)c1ccc(F)cc1)N1CC(=C2CN(S(=O)(=O)c3ccc4c(c3)OC(F)(F)O4)C2)C1 (stereo not drawn) [Compound 36, 1-(1'-((2,2-difluorobenzo[d][1,3]dioxolan-5-yl)sulfonyl)-1',4'-dihydro-2H,2'H-[3,3'-diazetidinylidene]-1(4H)-yl)-2-(4-fluorophenyl)-3-hydroxypropan-1-one]
16 | 300 to 1000 nM | O=C(N1CC(=C2CN(S(=O)(=O)c3ccc(OC(F)F)cc3)C2)C1)C1(c2ccccc2)CCOC1 (stereo not drawn) [Compound 37, (1'-((4-(difluoromethoxy)phenyl)sulfonyl)-1',4'-dihydro-2H,2'H-[3,3'-diazetidinylidene]-1(4H)-yl)(3-phenyltetrahydrofuran-3-yl)methanone]
17 | 300 to 1000 nM | O=C1COc2ccc(S(=O)(=O)N3CC(=C4CN(C(=O)[C@H](CO)c5ccccc5)C4)C3)cc2N1 [Compound 40, (S)-6-((1'-(3-hydroxy-2-phenylpropionyl)-1',4'-dihydro-2H,2'H-[3,3'-diazetidinylidene]-1(4H)-yl)sulfonyl)-2H-benzo[b][1,4]oxazine-3(4H)-one]
18 | < 100 nM | CN1C(=O)COc2ccc(S(=O)(=O)N3CC(=C4CN(C(=O)[C@H](CO)c5ccccc5)C4)C3)cc21 [Compound 41, (S)-6-((1'-(3-hydroxy-2-phenylpropionyl)-1',4'-dihydro-2H,2'H-[3,3'-diazetidinylidene]-1(4H)-yl)sulfonyl)-4-methyl-2H-benzo[b][1,4]oxazine-3(4H)-one]
19 | 101 to 300 nM | CN1CCN(c2cccc(C(O)C(=O)N3CC(=C4CN(S(=O)(=O)c5ccc6ncsc6c5)C4)C3)c2)CC1 (stereo not drawn) [Compound 43, 1-(1'-(benzo[d]thiazol-6-ylsulfonyl)-1',4'-dihydro-2H,2'H-[3,3'-diazetidinylidene]-1(4H)-yl)-2-hydroxy-2-(3-(4-methylpiperazin-1-yl)phenyl)ethan-1-one]
20 | 300 to 1000 nM | O=C(C(CO)c1cccnc1)N1CC(=C2CN(S(=O)(=O)c3ccc4ncsc4c3)C2)C1 (stereo not drawn) [Compound 48, 1-(1'-(benzo[d]thiazol-6-ylsulfonyl)-1',4'-dihydro-2H,2'H-[3,3'-diazetidinylidene]-1(4H)-yl)-3-hydroxy-2-(pyridin-3-yl)propan-1-one]
21 | < 100 nM | O=C(C(CO)c1ccc(F)c(Cl)c1)N1CC(=C2CN(S(=O)(=O)c3ccccn3)C2)C1 (stereo not drawn) [Compound 59, 2-(3-chloro-4-fluorophenyl)-3-hydroxy-1-(1'-(pyridin-2-ylsulfonyl)-1',4'-dihydro-2H,2'H-[3,3'-diazetidinylidene]-1(4H)-yl)propan-1-one]
22 | 101 to 300 nM | O=C(C(CO)c1ccc(F)c(F)c1)N1CC(=C2CN(S(=O)(=O)c3ccccn3)C2)C1 (stereo not drawn) [Compound 61, 2-(3,4-difluorophenyl)-3-hydroxy-1-(1'-(pyridin-2-ylsulfonyl)-1',4'-dihydro-2H,2'H-[3,3'-diazetidinylidene]-1(4H)-yl)propan-1-one]
23 | 300 to 1000 nM | Cn1cnc2ccc(S(=O)(=O)N3CC(=C4CN(C(=O)[C@H](CO)c5ccccc5)C4)C3)cc21 [Compound 63, (S)-3-hydroxy-1-(1'-((1-methyl-1H-benzimidazol-6-yl)sulfonyl)-1',4'-dihydro-2H,2'H-[3,3'-diazetidinylidene]-1(4H)-yl)-2-phenylpropan-1-one]
24 | < 100 nM | O=C([C@H](CO)c1ccccc1)N1CC(=C2CN(S(=O)(=O)c3ccc(Cl)cn3)C2)C1 [Compound 66]
